From patent publication US12150973B2, “OCA-B peptide conjugates and methods of treatment” (priority 2018, dated 2024) come the findings set out here.

In one data set the test system is female NOD mice. The data set can be described thus: NOD mouse model of newly manifested type 1 diabetes. Format: in vivo. Particulars: for pancreatic T cell infiltration (total numbers and percentages): flow cytometry; for pancreatic T cell infiltration (total numbers and percentages) / elevated blood glucose: 12 hr after final injection; for elevated blood glucose: female 14-18 week-old NOD mice, glucose newly risen above 225 mg/dL, three intravenous injections of 20 mg/kg spaced by 12 hr. How it is done: (§1) FIGS. 3A-D show OCA-B inhibitors and results using these peptides in primary CD4 T cells and in a NOD mouse model. […] Peptides #2 (SEQ ID NO: 2) and #3 (SEQ ID NO: 3) show efficacy. Arrows indicate position of mutant in FIG. 2C. Below: Il2 expression in primary CD4 T cells treated with 25 μM peptide #2 measured by RT-qPCR. […] In these animals, most pancreatic beta function is lost, and the diabetes arises from autoimmune inflammation (insulitis) in the pancreas, making the remaining beta cells nonfunctional.
Blood collection occurred prior to 2nd injection and 12 hr after final injection. […] Il2 gene expression was measured by TaqMan RT-qPCR. […] FIGS. 9D and E show similar analysis conducted using pancreatic lymph nodes (PLNs).
The peptide was synthesized and purified for an in vivo experiment. T1D onset in NOD mice is spontaneous and acute, allowing the administration of the peptide as symptoms arise. Female 14-18 week-old NOD mice whose glucose levels were newly-risen above 225 mg/dL but were still below 275 mg/dL were treated with three intravenous injections of 20 mg/kg peptide or Tat-only peptide control. The peptide half-life in serum was predicted to be ˜5 hr, and therefore the injections were spaced by 12 hr. Twelve hours after the final injection, blood glucose was collected and flow cytometry performed on the pancreas and pancreatic lymph nodes (PLNs). Strikingly, the inhibitor reversed elevated blood glucose (FIG. 3B; also see, FIG. 9), pancreatic T cell infiltration (both total numbers and percentages, FIG. 3C and not shown; also see, FIG. 9) and pro-inflammatory IFNγ and IL-17A cytokine production (not shown). Control peptide at the same concentration had no effect. […] OCA-B levels in B cells are at least 50-fold higher than in T cells (Immgen), making it likely that the observed effects are due to competitive inhibition in T cells. […] This peptide was used as a proto-drug to assess function and possible side effects.

In another data set the test system is CD4 T cell. Briefly: Viability, morphology and expansion of peptide-treated CD4 T cells. Type of data set: cell-based. Particulars: 25 μM peptide. An excerpt: Peptides were designed overlapping the OCA-B surface responsible for Jmjd1a binding, and were synthesized as Tat-fusions for membrane permeability (FIG. 3A). […] Treated cells show no changes in viability, morphology or expansion (not shown). Peptide #2 was used for subsequent experiments.

The next data set has as its system primary CD4 T cells. The data set can be described thus: Il2 and Ifng expression in restimulated primary CD4 T cells (RT-qPCR). Format: cell-based. How it is done:
as §1
Disclosed herein are methods that can be carried out to determine the efficacy of one or more peptides for their ability to block the interaction of OCA-B and Jmjd1a or Oct1. In some aspects, the method can be, for low-throughput studies, treating primary human or mouse CD4 T cells that have been previously stimulated and rested in culture with the test peptide (10-50 μM), and re-stimulating cells with CD3/CD28 antibodies in the presence of inhibitor. Efficacy can be determined by suppression of e.g., Il2 gene expression in T cells receiving a second stimulation, phenocopying the OCA-B germline deficient mouse (as shown in FIG. 3A). […]

Setting [1] is: NOD mice, three intravenous injections of 20 mg/kg, PLNs.
The mark [2] stands for this setting: NOD mice, three intravenous injections of 20 mg/kg, pancreas.

On to “VKELLRRKRGH-GSG(linker)-GRKKRRQRRRGY(Tat) (VKELLRRKRGHGSGGRKKRRQRRRGY) [SEQ ID NO: 10, OCA-B/Jmjd1a interface peptide fused to Tat peptide through a GSG linker]”, for which, in the data set on female NOD mice (setting [1]), the “T cell numbers or percentages in pancreatic lymph nodes (PLNs)” value is “unaffected” and the “pro-inflammatory cytokine production in pancreatic lymph nodes (PLNs)” value is “unaffected”. Besides, the “pancreatic T cell infiltration (total numbers and percentages)” value with female NOD mice (setting [2]) is given as “reduction”. The elevated blood glucose result with female NOD mice is reported as “strong efficacy”.

Regarding “GRKKRRQRRRGY [Tat-only peptide control, reference compound]”, in the data set on female NOD mice (setting [2]), the “pro-inflammatory IFNγ and IL-17A cytokine production” value is “no effect”; the “pancreatic T cell infiltration (total numbers and percentages)” value is “no effect”. Moreover, in the data set with female NOD mice (NOD mouse model, three injections, short time interval), the “T1D progression / emergence” value is listed as “progress”. Also, the elevated blood glucose result with female NOD mice was “no effect”.

With “ARPYQGVRVKEPVKELLRRKRGH [Peptide #3, OCA-B fragment synthesized as Tat fusion]”, in the data set on CD4 T cell, the “changes in viability, morphology or expansion of treated cells” value is “no changes”. In addition, the “Il2 and Ifng expression following CD4 T cell restimulation” value with primary CD4 T cells (25 μM peptide, Tat-fusion, compared with OCA-B null phenotype) is recorded as “phenocopies the OCA-B null phenotype”. Moreover, the “efficacy (Il2 expression in primary CD4 T cells)” value in the data set with primary CD4 T cells (peptides synthesized as Tat fusions, FIG. 3A) is “show efficacy”.
